Experimental data as given in publication PMC11791039, “A split intein and split luciferase-coupled system for detecting protein-protein interactions” (Molecular Systems Biology, 2024).
Several values for one entry are separate records, joined by “and”; a condition that tells them apart may be missing. Identical values can stand only once.

Columns and labels:
Type in all cases: cell-based
EGFR(WT)/SHC1 [1] = molecular target: T1, EGFR(WT)/SHC1 (Homo sapiens, UniProt P00533); experiment: SIMPL2 assay EGFR(WT)/SHC1; conditions: replicates 1-4;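 note: 0% is no doxycycline or compound and 100% is doxycycline without compound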
T1 construct: β10-IN (tNLuc β10 peptide + GP41-1 split intein N fragment) (C); V5; expressed in transfected cells

EGFR(L858R)/SHC1 [2] = molecular target: T2, EGFR(L858R)/SHC1 (Homo sapiens, UniProt P00533, L858R); experiment: SIMPL2 assay EGFR(L858R)/SHC1; conditions: replicates 1-4
T2 construct: β10-IN (tNLuc β10 peptide + GP41-1 split intein N fragment) (C); V5; expressed in transfected cells

EGFR(WT)/SHC1 [3] = molecular target: T1, EGFR(WT)/SHC1; experiment: Western blot of EGFR(WT)-SHC1 splicing; conditions: inhibitor 100 nM, 16 h
EGFR(L858R)/SHC1 [4] = molecular target: T2, EGFR(L858R)/SHC1; experiment: Western blot of EGFR(L858R)-SHC1 splicing; conditions: inhibitor 100 nM, 16 h
control = molecular target: T3, control (Homo sapiens, UniProt P01116, G12C); experiment: SIMPL2 assay, control of Fig. 3B-D; conditions: replicates 1-4
T3 construct: IC-β9 (GP41-1 split intein C fragment + tNLuc β9 peptide) (N); FLAG; expressed in transfected cells
T3 sequence (P01116 1-185 isoform P01116-2 G12C limits assumed): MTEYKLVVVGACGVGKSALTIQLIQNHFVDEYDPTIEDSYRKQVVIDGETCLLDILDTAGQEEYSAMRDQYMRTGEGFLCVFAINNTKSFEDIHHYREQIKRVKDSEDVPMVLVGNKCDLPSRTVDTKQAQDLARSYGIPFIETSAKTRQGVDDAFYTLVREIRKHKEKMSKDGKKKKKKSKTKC

SMILES: COc1cc2ncnc(Nc3cccc(Cl)c3)c2cc1OC [AG1478]
- SIMPL2 signal, WT (Fig. 3B) (EGFR(WT)/SHC1 [1]; AG1478 6.4e-6 uM): 102.427 and 84.7059 and 104.371 and 106.871
- SIMPL2 signal, WT (Fig. 3B) (EGFR(WT)/SHC1 [1]; AG1478 3.2e-5 uM): 77.5953 and 99.0938 and 89.9278 and 95.7607
- SIMPL2 signal, WT (Fig. 3B) (EGFR(WT)/SHC1 [1]; AG1478 0.00016 uM): 73.3734 and 100.927 and 94.8163 and 93.2609
- SIMPL2 signal, WT (Fig. 3B) (EGFR(WT)/SHC1 [1]; AG1478 0.0008 uM): 88.6501 and 85.7058 and 98.1494 and 104.871
- SIMPL2 signal, WT (Fig. 3B) (EGFR(WT)/SHC1 [1]; AG1478 0.004 uM): 74.54 and 81.3728 and 67.2627 and 74.6511
- SIMPL2 signal, WT (Fig. 3B) (EGFR(WT)/SHC1 [1]; AG1478 0.02 uM): 70.0958 and 71.7624 and 65.6517 and 61.8742
- SIMPL2 signal, WT (Fig. 3B) (EGFR(WT)/SHC1 [1]; AG1478 0.1 uM): 65.485 and 59.9854 and 59.7632 and 57.8189
- SIMPL2 signal, WT (Fig. 3B) (EGFR(WT)/SHC1 [1]; AG1478 0.5 uM): 29.8764 and 30.6541 and 19.6549 and 21.0437
- SIMPL2 signal, L858R (Fig. 3B) (EGFR(L858R)/SHC1 [2]; AG1478 6.4e-6 uM): 91.6588 and 97.6255 and 114.285 and 112.912
- SIMPL2 signal, L858R (Fig. 3B) (EGFR(L858R)/SHC1 [2]; AG1478 3.2e-5 uM): 89.0187 and 76.3196 and 106.708 and 96.4903
- SIMPL2 signal, L858R (Fig. 3B) (EGFR(L858R)/SHC1 [2]; AG1478 0.00016 uM): 80.0422 and 76.3461 and 104.596 and 91.474
- SIMPL2 signal, L858R (Fig. 3B) (EGFR(L858R)/SHC1 [2]; AG1478 0.0008 uM): 78.2733 and 74.7356 and 79.963 and 75.2372
- SIMPL2 signal, L858R (Fig. 3B) (EGFR(L858R)/SHC1 [2]; AG1478 0.004 uM): 44.1628 and 44.3476 and 45.9581 and 41.1531
- SIMPL2 signal, L858R (Fig. 3B) (EGFR(L858R)/SHC1 [2]; AG1478 0.02 uM): 13.9069 and 29.2725 and 26.9756 and 25.1011
- SIMPL2 signal, L858R (Fig. 3B) (EGFR(L858R)/SHC1 [2]; AG1478 0.1 uM): 16.4414 and 17.2863 and 10.8707 and 9.471
- SIMPL2 signal, L858R (Fig. 3B) (EGFR(L858R)/SHC1 [2]; AG1478 0.5 uM): 3.505 and 4.482 and 4.93 and 3.98
- splicing between EGFR(WT) and SHC1 (western blot) (EGFR(WT)/SHC1 [3]): reduced or abolished
- splicing between EGFR(L858R) and SHC1 (western blot) (EGFR(L858R)/SHC1 [4]): reduced or abolished
- SIMPL2 signal, control (Fig. 3B) (control; AG1478 6.4e-6 uM): 78.4402 and 101.308 and 94.2905 and 84.6604
- SIMPL2 signal, control (Fig. 3B) (control; AG1478 3.2e-5 uM): 100.905 and 96.8875 and 97.961 and 100.282
- SIMPL2 signal, control (Fig. 3B) (control; AG1478 0.00016 uM): 91.8672 and 101.363 and 100.305 and 106.707
- SIMPL2 signal, control (Fig. 3B) (control; AG1478 0.0008 uM): 94.4089 and 99.0424 and 101.553 and 109.943
- SIMPL2 signal, control (Fig. 3B) (control; AG1478 0.004 uM): 91.5435 and 102.468 and 100.85 and 97.0453
- SIMPL2 signal, control (Fig. 3B) (control; AG1478 0.02 uM): 77.4062 and 87.6599 and 89.9806 (2×)
- SIMPL2 signal, control (Fig. 3B) (control; AG1478 0.1 uM): 82.8606 and 100.092 and 105.918 and 87.8651
- SIMPL2 signal, control (Fig. 3B) (control; AG1478 0.5 uM): 102.547 and 94.4247 and 100.724 and 111.159
